Source: ChEMBL document CHEMBL1817646, “Chromomycin SA analogs from a marine-derived Streptomyces sp” (Bioorg Med Chem, 2011)

Assays:
[1] = Cytotoxicity against human HCC44 cells after 96 hrs by Cell Titer Glo assay; type: functional, cell-based; conditions: HCC44, 96 h
[2] = tested on: A549; test: Cytotoxicity against human A549 cells after 96 hrs by Cell Titer Glo assay; type: functional, cell-based; conditions: A549, 96 h
[3] = Ratio IC50 for compound to mithramycin IC50 for mouse 3T3 cells; type: cell-based; conditions: NIH3T3 cells, read-out: Ratio IC50

Compound | IC50 [1] [nM] | IC50 [2] [nM] | selectivity ratio [3]
CO[C@H]1[C@H](O)C[C@@H](O[C@@H]2C[C@H](Oc3cc4cc5c(c(O)c4c(O)c3C)C(=O)[C@@H](O[C@H]3C[C@H](O[C@H]4C[C@H](O[C@H]6C[C@@](C)(O)[C@@H](O)[C@H](C)O6)[C@H](O)[C@@H](C)O4)[C@H](O)[C@@H](C)O3)[C@H]([C@H](OC)C(=O)O)C5)O[C@H](C)[C@H]2OC(C)=O)O[C@@H]1C [CHROMOMYCIN SA3] | > 33300 | > 50000 | 
CO[C@H](C(=O)[C@@H](O)[C@@H](C)O)[C@@H]1Cc2cc3cc(O[C@H]4C[C@@H](O[C@H]5C[C@@H](O)[C@H](O)[C@@H](C)O5)[C@H](O)[C@@H](C)O4)c(C)c(O)c3c(O)c2C(=O)[C@H]1O[C@H]1C[C@@H](O[C@H]2C[C@@H](O[C@H]3C[C@](C)(O)[C@H](O)[C@@H](C)O3)[C@@H](O)[C@@H](C)O2)[C@H](O)[C@@H](C)O1 [PLICAMYCIN] |  |  | 1500
CO[C@H]1[C@H](O)C[C@@H](O[C@@H]2C[C@H](Oc3cc4cc5c(c(O)c4c(O)c3C)C(=O)[C@@H](O[C@H]3C[C@H](O[C@H]4C[C@H](O[C@H]6C[C@@](C)(O)[C@@H](O)[C@H](C)O6)[C@H](O)[C@@H](C)O4)[C@H](O)[C@@H](C)O3)[C@H]([C@H](OC)C(=O)[C@@H](O)[C@@H](C)O)C5)O[C@H](C)[C@H]2OC(C)=O)O[C@@H]1C [DEACETYL CHROMOMYCIN A3] | 670 | 1200 | 
COC(=O)[C@@H](OC)[C@@H]1Cc2cc3cc(O[C@H]4C[C@@H](O[C@@H]5C[C@@H](O)[C@H](OC)[C@@H](C)O5)[C@H](OC(C)=O)[C@@H](C)O4)c(C)c(O)c3c(O)c2C(=O)[C@H]1O[C@H]1C[C@H](O[C@H]2C[C@H](O[C@H]3C[C@@](C)(O)[C@@H](O)[C@H](C)O3)[C@H](O)[C@@H](C)O2)[C@H](O)[C@@H](C)O1 | 3400 |  | 
CO[C@@H]1[C@H](O)C[C@@H](O[C@@H]2C[C@H](Oc3cc4cc5c(c(O)c4c(O)c3C)C(=O)[C@@H](O[C@H]3C[C@@H](O[C@H]4C[C@@H](O[C@H]6C[C@](C)(O)[C@@H](OC(C)=O)[C@H](C)O6)[C@H](O)[C@@H](C)O4)[C@H](O)[C@@H](C)O3)[C@H]([C@H](OC)C(=O)[C@@H](O)[C@@H](C)O)C5)O[C@H](C)[C@@H]2OC(C)=O)O[C@@H]1C [CHROMOMYCIN A3] | 1 | 42 | 
COC(=O)[C@@H](OC)[C@@H]1Cc2cc3cc(O[C@H]4C[C@@H](O[C@@H]5C[C@@H](O)[C@H](OC)[C@@H](C)O5)[C@H](OC(C)=O)[C@@H](C)O4)c(C)c(O)c3c(O)c2C(=O)[C@H]1O[C@H]1C[C@H](O[C@H]2C[C@H](O[C@H]3C[C@@](C)(O)[C@@H](OC(=O)C(C)C)[C@H](C)O3)[C@H](O)[C@@H](C)O2)[C@H](O)[C@@H](C)O1 | 56 |  | 
CO[C@H]1[C@H](O)C[C@@H](O[C@@H]2C[C@H](Oc3cc4cc5c(c(O)c4c(O)c3C)C(=O)[C@@H](O[C@H]3C[C@H](O[C@H]4C[C@H](O[C@H]6C[C@@](C)(O)[C@@H](OC(C)=O)[C@H](C)O6)[C@H](O)[C@@H](C)O4)[C@H](O)[C@@H](C)O3)[C@H]([C@H](OC)C(=O)O)C5)O[C@H](C)[C@H]2OC(C)=O)O[C@@H]1C [CHROMOMYCIN SA] | 210 | 560 | 
CO[C@H]1[C@H](O)C[C@@H](O[C@@H]2C[C@H](Oc3cc4cc5c(c(O)c4c(O)c3C)C(=O)[C@@H](O[C@H]3C[C@H](O[C@H]4C[C@H](O[C@H]6C[C@@](C)(O)[C@@H](OC(=O)C(C)C)[C@H](C)O6)[C@H](O)[C@@H](C)O4)[C@H](O)[C@@H](C)O3)[C@H]([C@H](OC)C(=O)O)C5)O[C@H](C)[C@H]2OC(C)=O)O[C@@H]1C [CHROMOMYCIN SA2] | 780 | 1500 | 
CO[C@H]1[C@H](O)C[C@@H](O[C@@H]2C[C@H](Oc3cc4cc5c(c(O)c4c(O)c3C)C(=O)[C@@H](O[C@H]3C[C@H](O[C@H]4C[C@H](O[C@H]6C[C@@](C)(O)[C@@H](OC(=O)C(C)C)[C@H](C)O6)[C@H](O)[C@@H](C)O4)[C@H](O)[C@@H](C)O3)[C@H]([C@H](OC)C(=O)[C@@H](O)[C@@H](C)O)C5)O[C@H](C)[C@H]2OC(C)=O)O[C@@H]1C [CHROMOMYCIN A2] | 0.26 | 0.44 | 
CO[C@H]1[C@H](O)C[C@@H](O[C@@H]2C[C@H](Oc3cc4cc5c(c(O)c4c(O)c3C)C(=O)[C@@H](O[C@H]3C[C@H](O[C@H]4C[C@H](O[C@H]6C[C@@](C)(O)[C@@H](O)[C@H](C)O6)[C@H](O)[C@@H](C)O4)[C@H](O)[C@@H](C)O3)[C@H]([C@H](OC)C(=O)[C@@H](O)[C@@H](C)O)C5)O[C@H](C)[C@H]2O)O[C@@H]1C | > 50000 | > 50000 | 
